Assay results taken from patent US20200278355A1, “CONJUGATED PROTEINS AND USES THEREOF” (THE SCRIPPS RESEARCH INSTITUTE, priority 2017, published 2020).

Key:
[1] = target: T1, TXN (Homo sapiens, UniProt P10599); test: ABPP-SILAC BPK-29yne competition in H460 cells: TXN; type: cell-based; conditions: 20 μM
T1 construct: H460 cells or H460 cells expressing luciferase in a 10 cm plate were incubated with indicated compounds; endogenous in cells; host or cells: H460
Procedure: Isotopically labeled H460 cell lines were generated as described above. Light and heavy cells were treated with compounds (20 μM) or DMSO, respectively, for 3 h, followed by labeling with the BPK-29yne (5 μM) for 30 min. Cells were washed once ice-cold PBS and lysed in 1% Triton 100-X dissolved in PBS with protease inhibitors (Sigma) by sonication. Lysate was adjusted to 1.5 mg ml^−1 in 500 μL. Samples were conjugated by CuAAC to Biotin-PEG4-azide (5 μL of 10 mM stocks in DMSO, final concentration=100 μM). CuAAC “click” mix contained TCEP, TBTA ligand and CuSO4 as detailed for isoTOP-ABPP sample preparation. Samples were further processed as detailed in: isoTOP-ABPP streptavidin enrichment and isoTOP-ABPP trypsin TEV digestion with the following exception: after overnight incubation at 37° C. with trypsin, tryptic digests were separated from the beads with Micro Bio-Spin columns (Bio-Rad) by centrifugation (1,000×g, 1 min). Beads were rinsed once with water (200 μL) and combined with tryptic digests. […]
The MS2 spectra data were extracted and searched using RAW Convertor and ProLuCID algorithm as described in isoTOP-ABPP peptide and protein quantification. […] Ratios of heavy/light (DMSO/test compound) peaks were calculated using in-house CIMAGE software. […] The mean R values and standard deviation for multiple biological experiments were calculated from the average ratios from each replicate. […]

[2] = target: T2, NUDT8 (Homo sapiens, UniProt Q8WV74); test: isoTOP-ABPP of compound-treated H460 cells: NUDT8; type: cell-based; conditions: NUDT8 C207; 40 μM
T2 construct: H460 cells or H460 cells expressing luciferase in a 10 cm plate were incubated with indicated compounds; endogenous in cells; host or cells: H460
Procedure: For analysis of NR0B1 ligands or control compound reactivity, H460 cells or H460 cells expressing luciferase in a 10 cm plate were incubated with indicated compounds in serum/dye-free RPMI for 3 hours at 37° C. Cells were washed once ice-cold PBS and lysed in 1% Triton X-100 dissolved in PBS with protease inhibitors (Sigma) by sonication. Samples were clarified by centrifugation for 10 min at 16,000×g. Lysate was adjusted to 1.5 mg ml^−1 in 500 μL.
Samples were labeled for 1 h at ambient temperature with 100 μM iodoacetamide alkyne (1, IA-alkyne, 5 μL of 10 mM stock in DMSO). Samples were conjugated by copper-catalyzed azide-alkyne cycloaddition (CuAAC) to isotopically labeled, TEV-cleavable tags (TEV-tags). Heavy CuAAC reaction mixtures was added to the DMSO-treated or shGFP control samples and light CuAAC reaction mixture was added to compound-treated or shNRF2 samples. The CuAAC reaction mixture consisted of TEV tags (light or heavy, 10 μL of 5 mM stocks in DMSO, final concentration=100 μM), 1 mM tris(2-carboxyethyl)phosphine hydrochloride (TCEP; fresh 50× stock in water, final concentration=1 mM), ligand (17× stock in DMSO:t-butanol 1:4, final concentration=100 μM) and 1 mM CuSO4 (50× stock in water, final concentration=1 mM). The samples were allowed to react for 1 h at which point the samples were centrifuged (16,000×g, 5 min, 4° C.). […]

T1 sequence (P10599 whole entry): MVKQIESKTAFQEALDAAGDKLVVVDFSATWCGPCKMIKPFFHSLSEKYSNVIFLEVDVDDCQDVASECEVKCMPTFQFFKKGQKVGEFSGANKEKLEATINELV
T2 sequence (Q8WV74 whole entry): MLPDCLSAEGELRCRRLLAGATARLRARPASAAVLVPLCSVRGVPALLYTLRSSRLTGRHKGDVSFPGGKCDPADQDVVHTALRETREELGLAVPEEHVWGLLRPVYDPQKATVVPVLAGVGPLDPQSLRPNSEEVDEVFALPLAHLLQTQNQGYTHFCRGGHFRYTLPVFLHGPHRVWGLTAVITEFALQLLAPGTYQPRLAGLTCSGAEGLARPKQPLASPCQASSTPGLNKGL

O=C(c1ccc(N2CCOCC2)cc1)N1CCCC(N(Cc2ccccc2)C(=O)CCl)CC1 (centres unmarked) [BPK-29, N-benzyl-2-chloro-N-(1-(4-morpholinobenzoyl)azepan-4-yl)acetamide]
BPK-29-competed BPK-29yne analysis [1]: Yes (Competed defined as showing R value ≥ 2.5 at 20 μM of test compound)
BPK-29-competed isoTOP-ABPP analysis [2]: Yes (Competed defined as showing R value ≥ 3.0 at 40 μM of test compound)
